14 compounds from patent publication US10710996B2, “Pyrido-azaheterecydic compound and preparation method and use thereof” (SHANGHAI INSTITUTE OF MATERIA MEDICA, CHINESE ACADEMY OF …, priority 2015, dated 2020) can be followed below.

pIC50: −log10 of the molar value.

One test has as its target T1, c-Met kinase (Homo sapiens, UniProt P08581).
T1 construct: c-Met kinase domain recombinant protein diluted with 49 μL of the reaction buffer was added
Put plainly: Inhibitory effect on c-Met kinase activity at molecular level (ELISA).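 Note: recombinant c-Met kinase domain with 5 µM ATP, 1 h at 37 °C, substrate phosphorylation detected by anti-phosphotyrosine PY99 ELISA at 490 nm versus DMSO negative control, ATP-free wells as blank.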 In kind it is biochemical. On the technique in general: ELISA stands for enzyme-linked immunosorbent assay.

For another test, the system named is EBC-1 cells. Put plainly: Inhibition of c-Met-mediated EBC-1 cell proliferation (SRB staining). The test is classed as cell-based. Conditions: Homo sapiens, 72 hours treatment. The protocol:
The inhibitory effect of the compounds on the growth of non-small cell cancer EBC-1 cell (a cell line in which Met is continually activated due to the amplification of MET gene, and is a Met-dependent tumor cell line) was measured by sulforhodamine B (SRB) staining assay. A certain amount of EBC-1 cells in their logarithmic growth phase were seeded in 96-well plates at 90 μL per well and cultured overnight, then 10 μL of different concentrations of compounds or solvent control were added thereto, three wells for each concentration. After treated by the compound for 72 hours, the adherent cells were removed of culture medium and fixed with 10% (w/v) trichloroacetic acid (100 μL/well) at 4° C. for 1 hr followed by rinsing with distilled water five times. After drying at room temperature, 100 μL of SRB solution (dissolved in 1% glacial acetic acid at 4 mg/mL) was added to each well to incubate and stain the cells for 15 min at room temperature, then unbound SRB was washed off with 1% glacial acetic acid for five times. After drying at room temperature, 100 μL of 10 mM Tris solution was added to each well. The optical density (OD value) at 515 nm was read on a VERSMax microplate reader. […] The experiment was repeated twice. The IC50 data was calculated as a range based on the test results of concentrations set in the initial screening test.
A general note: Sulforhodamine B stains cellular protein and so reports cell mass.

T1 sequence (P08581 1078-1345 limits assumed): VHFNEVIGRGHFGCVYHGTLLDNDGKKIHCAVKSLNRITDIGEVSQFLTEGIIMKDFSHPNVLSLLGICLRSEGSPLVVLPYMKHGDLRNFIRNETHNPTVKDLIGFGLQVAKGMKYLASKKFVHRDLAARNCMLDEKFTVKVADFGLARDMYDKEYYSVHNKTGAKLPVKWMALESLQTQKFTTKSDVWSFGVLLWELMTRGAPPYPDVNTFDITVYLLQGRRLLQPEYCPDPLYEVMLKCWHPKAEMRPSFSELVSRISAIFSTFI

As a reminder, the pIC50 is the negative decadic logarithm of the IC50, by convention in mol/L. The low end stands for a high IC50, the high end for a low IC50. As to `O=C(Nc1ccc(F)cc1)C1(C(=O)Nc2ccc(Oc3ccnc4cc(Cn5ccnc5)ncc34)c(F)c2)CC1` [Compound 44S, N-(4-((7-((1H-imidazol-1-yl)methyl)-1,6-naphthyridin-4-yl)oxy)-3-fluorophenyl)-N-(4-fluorophenyl)cyclopropyl-1,1-dicarboxamide], the pIC50 at c-Met kinase was 7.00 to 8.00; in the test with EBC-1 cells it was 6.00 to 7.00.

For the compound `O=C(Nc1ccc(F)cc1)C1(C(=O)Nc2ccc(Oc3ccnc4nc(NCCCN5CCOCC5)cnc34)c(F)c2)CC1` [Compound 62S, N-(3-fluoro-4-((3-((3-morpholinopropyl)amino)pyrido[2,3-b]pyrazin-8-yl)oxy)phenyl)-N-(4-fluorophenyl) cyclopropyl-1,1-dicarboxamide], the pIC50 is 7.00 to 8.00 on c-Met kinase and 5.00 to 6.00 in the test with EBC-1 cells.

`Cn1cc(-c2cc3nccc(Oc4ccc(NC(=O)C5(C(=O)Nc6ccc(F)cc6)CC5)cc4F)c3cn2)cn1` [Compound 38S, N-(3-fluoro-4-((7-(1-methyl-1H-pyrazol-4-yl)-1,6-naphthyridin-4-yl)oxy)phenyl)-N-(4-fluorophenyl)cyclopropyl-1,1-dicarboxamide]: the pIC50 against c-Met kinase and with EBC-1 cells was 8.00 to 9.00 each time.

Take `CC(CN1CCOCC1)Oc1cc2nccc(Oc3ccc(NC(=O)C4(C(=O)Nc5ccc(F)cc5)CC4)cc3F)c2cn1` (stereo not shown) [Compound 26S, N-(3-fluoro-4-((7-((1-morpholinopropan-2-yl)oxy)-1,6-naphthyridin-4-yl)oxy)phenyl)-N-(4-fluorophenyl) cyclopropyl-1,1-dicarboxamide]: the pIC50 is 7.00 to 8.00 on c-Met kinase and 6.00 to 7.00 in the test on EBC-1 cells.

Take `O=C(Nc1ccc(F)cc1)C1(C(=O)Nc2ccc(Oc3ccnc4ncc(OCCCN5CCOCC5)nc34)c(F)c2)CC1` [Compound 68S, N-(3-fluoro-4-((2-(3-morpholinopropoxy)pyrido[2,3-b]pyrazin-8-yl)oxy)phenyl)-N-(4-fluorophenyl)cyclopropyl-1,1-dicarboxamide]: the pIC50 against c-Met kinase and in the test with EBC-1 cells was 5.00 to 6.00 throughout.

Turning to `O=C(Nc1ccc(F)cc1)C1(C(=O)Nc2ccc(Oc3ccnc4nc(OCCN5CCOCC5)cnc34)c(F)c2)CC1` [Compound 60S, N-(3-fluoro-4-((3-(2-morpholinoethoxy)pyrido[2,3-b]pyrazin-8-yl)oxy)phenyl)-N-(4-fluorophenyl)cyclopropyl-1,1-dicarboxamide], the pIC50 was 7.00 to 8.00 on c-Met kinase and 5.00 to 6.00 in the test on EBC-1 cells.

`CC(C)N1CCC(n2cc(-c3cc4nccc(Oc5ccc(NC(=O)C6(C(=O)Nc7ccc(F)cc7)CC6)cc5F)c4cn3)cn2)CC1` [Compound 43S, N-(3-fluoro-4-((7-(1-(1-isopropylpiperidin-4-yl)-1H-pyrazol-4-yl)-1,6-naphthyridin-4-yl)oxy)phenyl)-N-(4-fluorophenyl)cyclopropyl-1,1-dicarboxamide]: the pIC50 against c-Met kinase is 8.00 to 9.00; in the test with EBC-1 cells it was 6.00 to 7.00.

As for `CN1CCN(c2cnc3c(Oc4ccc(NC(=O)C5(C(=O)Nc6ccc(F)cc6)CC5)cc4F)ccnc3n2)CC1` [Compound 59S, N-(3-fluoro-4-((3-(4-methylpiperazin-1-yl)pyrido[2,3-b]pyrazin-8-yl)oxy)phenyl)-N-(4-fluorophenyl)cyclopropyl-1,1-dicarboxamide], the pIC50 against c-Met kinase was 8.00 to 9.00; in the test with EBC-1 cells, 6.00 to 7.00.

Regarding `CN(C)c1cc2nccc(Oc3ccc(NC(=O)C4(C(=O)Nc5ccc(F)cc5)CC4)cc3F)c2cn1` [Compound 2S, N-(4-((7-(dimethylamino)-1,6-naphthyridin-4-yl)oxy)-3-fluorophenyl)-N-(4-fluorophenyl)cyclopropyl-1,1-dicarboxamide], the pIC50 against c-Met kinase is 8.00 to 9.00; in the test with EBC-1 cells it was 7.00 to 8.00.

`O=C(Nc1ccc(F)cc1)C1(C(=O)Nc2ccc(Oc3ccnc4cc(OCCN5CCOCC5)ncc34)cc2)CC1` [Compound 12S, N-(4-fluorophenyl)-N-(4-((7-(2-morpholinoethoxy)-1,6-naphthyridin-4-yl)oxy)phenyl)cyclopropyl-1,1-dicarboxamide]: the pIC50 on c-Met kinase was 8.00 to 9.00; in the test on EBC-1 cells, 6.00 to 7.00.

Regarding `CN1CCC(COc2cc3nccc(Oc4ccc(NC(=O)C5(C(=O)Nc6ccc(F)cc6)CC5)cc4F)c3cn2)CC1` [Compound 9S, N-(3-fluoro-4-((7-((1-methylpiperidin-4-yl)methoxy)-1,6-naphthyridin-4-yl)oxy)phenyl)-N-(4-fluorophenyl) cyclopropyl-1,1-dicarboxamide], the pIC50 was 8.00 to 9.00 against c-Met kinase and 7.00 to 8.00 with EBC-1 cells.

Regarding `O=C1COCCN1CCOc1cc2nccc(Oc3ccc(NC(=O)C4(C(=O)Nc5ccc(F)cc5)CC4)cc3F)c2cn1` [Compound 37S, N-(3-fluoro-4-((7-(2-(3-oxomorpholino)ethoxy)-1,6-naphthyridin-4-yl)oxy)phenyl)-N-(4-fluorophenyl) cyclopropyl-1,1-dicarboxamide], the negative-log IC50 (pIC50) at c-Met kinase was 8.00 to 9.00; in the test on EBC-1 cells, 7.00 to 8.00.

Take `O=C(Nc1ccc(F)cc1)C1(C(=O)Nc2ccc(Oc3ccnc4cc(OCCc5ccncc5)ncc34)c(F)c2)CC1` [Compound 25S, N-(3-fluoro-4-((7-(2-(pyridin-4-yl)ethoxy)-1,6-naphthyridin-4-yl)oxy)phenyl)-N-(4-fluorophenyl)cyclopropyl-1,1-dicarboxamide]: the pIC50 against c-Met kinase is 8.00 to 9.00; in the test with EBC-1 cells, 6.00 to 7.00.

Regarding `O=C(Nc1ccc(F)cc1)C1(C(=O)Nc2ccc(Nc3ccnc4cc(OCCN5CCOCC5)ncc34)cc2)CC1` [Compound 13S, N-(4-fluorophenyl)-N-(4-((7-(2-morpholinoethoxy)-1,6-naphthyridin-4-yl)amino)phenyl)cyclopropyl-1,1-dicarboxamide], the pIC50 against c-Met kinase is 8.00 to 9.00; in the test with EBC-1 cells it was 6.00 to 7.00.
